In ChEMBL document CHEMBL5244256, “Selenium as an interesting option for the treatment of Chagas disease: A review” (Eur J Med Chem, 2020):

What was measured:
Leishmania infantum [1] = test: Antileishmanial activity against Leishmania infantum MCAN/ES/89/IPZ229/1/89 amastigotes assessed as reduction in parasite growth incubated for 24 hrs by flow cytometry analysis; type: functional, organism-based; details: MCAN/ES/89/IPZ229/1/89, 24 h
[2] = Selectivity ratio of IC50 for cytotoxicity against human THP-1 cells to IC50 for Antileishmanial activity against Leishmania infantum MCAN/ES/89/IPZ229/1/89 amastigotes; type: toxicity, cell-based; details: read-out: Ratio IC50
Leishmania infantum [3] = test: Antileishmanial activity against Leishmania infantum MCAN/ES/89/IPZ229/1/89 promastigotes assessed as reduction in parasite growth incubated for 24 hrs by flow cytometry analysis; type: functional, organism-based; details: MCAN/ES/89/IPZ229/1/89, 24 h
Trypanosoma cruzi [4] = test: Trypanocidal activity against Trypanosoma cruzi Y strain amastigotes measured after 48 hrs; type: functional, organism-based
[5] = Selectivity ratio of IC50 for cytotoxicity against mouse J774.1 cells to IC50 for Trypanocidal activity against Trypanosoma cruzi Tulahuen 2 strain; type: toxicity, cell-based; details: read-out: Ratio IC50
Trypanosoma cruzi [6] = test: Trypanocidal activity against Trypanosoma cruzi Y strain; type: functional, organism-based
Trypanosoma cruzi [7] = test: Trypanocidal activity against Trypanosoma cruzi Y strain measured after 24 hrs; type: functional, organism-based
Trypanosoma cruzi [8] = test: Potency index, ratio of test compound IC50 to Benznidazole IC50 for Trypanocidal activity against Trypanosoma cruzi Y strain measured after 24 hrs; type: functional
Trypanosoma cruzi [9] = test: Trypanocidal activity against Trypanosoma cruzi Y strain epimastigotes measured after 72 hrs; type: functional, organism-based
[10] = Selectivity ratio of IC50 for cytotoxicity against human MRC5 cells to IC50 for Trypanocidal activity against Trypanosoma cruzi Tulahuen CL2 strain; type: toxicity, cell-based; details: read-out: Ratio IC50

C[Se]/C(=N/C(=O)c1cccnc1)NC(=O)c1cccnc1
IC50 (Leishmania infantum [1]): 3.03 µM
selectivity ratio [2]: 4
IC50 (Leishmania infantum [3]): 3.74 µM

CCNC(=O)SCCOc1ccc(Oc2ccccc2)cc1
IC50 (Trypanosoma cruzi [4]): 7.88 µM

O=C(CS/C(C(=O)c1ccc2ccccc2c1)=C1\C=C(c2ccc(O)cc2)SS1)c1ccc2ccccc2c1
selectivity ratio at 48 h [5]: 12.8

Cc1cccc([Se]C2CC3=C(OC2(C)C)c2ccccc2C(=O)C3=O)c1 (stereo not given)
IC50 (Trypanosoma cruzi [6]): 1680 µM

COc1cccc([Se]C2CC3=C(OC2(C)C)c2ccccc2C(=O)C3=O)c1 (stereo not given)
IC50 (Trypanosoma cruzi [6]): 208 µM

COc1ccccc1/C=C/C=N/NC(N)=S
IC50 (Trypanosoma cruzi [7]): 0.4 µM

CC1(C)OC2=C(CC1[Se]c1cccc(Cl)c1)C(=O)C(=O)c1ccccc12 (stereo not given)
IC50 (Trypanosoma cruzi [6]): 360 µM

CC1(C)OC2=C(CC1[Se]c1cccc(Br)c1)C(=O)C(=O)c1ccccc12 (stereo not given)
IC50 (Trypanosoma cruzi [6]): 477 µM

CC1(C)OC2=C(CC1[Se]c1ccc(C(F)(F)F)cc1)C(=O)C(=O)c1ccccc12 (stereo not given)
IC50 (Trypanosoma cruzi [6]): 54.9 µM
Ratio IC50 (Trypanosoma cruzi [8]): 2

CC(C)=CCC/C(C)=C/COc1ccc(CCN(C)C(=O)/C=C/S(C)(=O)=O)cc1
IC50 (Trypanosoma cruzi [9]): 1.23 µM

CCOc1cccc2sc(N(Cc3cccnc3)C(=O)C3CCCCC3)nc12
selectivity ratio [10]: > 200

O=C(Cn1ccnc1[N+](=O)[O-])NCc1ccccc1 [BENZNIDAZOLE]
IC50 (Trypanosoma cruzi [6]): 104 µM
